# In US20070244107A1, “Method of Treating Atherosclerosis, Dyslipidemias and Related Conditions” (priority 2004, published 2007):
# “Also recorded” adds a separate entry of the source.
# Tested on: male C57B16 mice
# Experiment: Flushing via laser Doppler procedure in mice
# Format: in vivo
# Details: relative to nicotinic acid; mouse model
# Procedure: To measure flushing, male C57B16 mice (approx. 25 g) are anesthetized using 10 mg/mkg Nembutal sodium. After ten minutes the animal is placed under the laser and the ear is folded back to expose the ventral side. The laser is positioned in the center of the ear and focused to an intensity of 8.4-9.0 V (which is generally approx. 4.5 cm above the ear). Data acquisition is initiated with a 15 by 15 image format, auto interval, 60 images and a 20 sec time delay with a medium resolution. Test compounds are administered following the 10th image via injection into the peritoneal space. Images 1-10 are considered the animal's baseline and data is normalized to an average of the baseline mean intensities.
smiles,measurement,value
"C1Cc2[nH]nc(-c3nnn[nH]3)c2C1 [compound of formula I, 3-(2H-tetrazol-5-yl)-1,4,5,6-tetrahydrocyclopentapyrazole]",flushing effect,"reduced flushing effect relative to nicotinic acid; also recorded: reduced flushing effect relative to nicotinic acid, but flushing is not completely eliminated"
